Reference: patent publication US20170224731A1, “METHOD OF PRODUCING LEUKOCYTES USING PTPN2 INHIBITION FOR ADOPTIVE CELL TRANSFER” (MONASH UNIVERSITY, priority 2014, published 2017)

Experiments:
[1] = tested on: CD8+ naïve (CD62LhiCD44lo) splenic T cells; assay: Activation of naive CD8+ splenic T cells with plate-bound αCD3/CD28, surface markers by flow cytometry (FIG. 11); type: cell-based, C57BL/6 mice; conditions: plate-bound αCD3/CD28 for 48 h, versus vehicle
Source text: FIG. 11. […] T cells were stained with fluorochrome-conjugated antibodies to assess CD44, CD62L, IL-2Ra (CD25 subunit) and CD69 surface levels and mean fluorescence intensity (MFI) was monitored by flow cytometry.
T cells were stained with fluorochrome-conjugated antibodies to assess CD44, CD62L, IL-2Rα (CD25 subunit) and CD69 surface levels and mean fluorescence intensity (MFI) was monitored by flow cytometry.

[2] = tested on: Naive (CD62LhiCD44lo) CD8+ LN T cells; assay: Stimulation of naive CD8+ LN T cells with anti-CD3/anti-CD28 ± PTPN2 inhibitor, MFI by flow cytometry (FIG. 14); type: cell-based, C57BL/6 mice; conditions: anti-CD3 (5 μg/ml) and anti-CD28 (5 μg/ml) for 60 h, inhibitor at various concentrations
Protocol: FIG. 14. […] Naive (CD62LhiCD44lo) CD8+ LN T cells (1×105) from C57BL/6 mice were stimulated with plate-bound anti-CD3 (5μg/ml) and anti-CD28 (5μg/m1) for 60 h±PTPN2 inhibitor at various concentrations. Cells were harvested and stained with fluorochrome-conjugated antibodies for CD44, CD69, CD25 and CD62L and mean fluorescence intensity (MFI) analyzed by flow cytometry. Results shown are means±SD for the indicated number of replicates.
CD8^+CD62L^hiCD44^lo naïve LN T cells (1×10^5/well) were stimulated in 96-well round-bottom plates with plate-bound α-CD3 (5 μg/ml) and a-CD28 (5 μg/ml) for 60 h. PTPN2 inhibitor was added twice daily to the culture. To determine the activation status cells were harvested, stained with fluorochrome-conjugated antibodies against α-CD25, α-CD44, α-CD62L and α-CD69 and analysed by flow cytometry.
In FIG. 14, the results of naive)(CD62L^hiCD44^loCD8+ LN T cells (1×105) from C57BL/6 mice that were stimulated with plate-bound anti-CD3 (5 μg/ml) and anti-CD28 (5 μg/ml) for 60 h±PTPN2 inhibitor (compound 8) at various concentrations is shown. Cells were harvested and stained with fluorochrome-conjugated antibodies for CD44, CD69, CD25 and CD62L and mean fluorescence intensity (MFI) analyzed by flow cytometry. Results shown are means±SD for the indicated number of replicates.

[3] = tested on: CD8+ human blood lymphocytes; assay: Human PBMC stimulation with plate-bound α-CD3, T cell activation (CD69, CD154) by flow cytometry (FIG. 16); type: cell-based; conditions: human PBMCs, plate-bound α-CD3 (1.25 and 2.5 μg/ml) for 24 h
Protocol: FIG. 16. […] Freshly isolated human PBMCs (2×10^6) were stimulated with plate-bound α-CD3 (1.25 and 2.5 μg/ml) for 24 h. PBMCs were harvested and stained with fluorochrome-conjugated antibodies for CD45RA, CD8, CD69 and CD154 and T cell activation was monitored by flow cytometry. Representative CD8 versus CD69 and CD154 plots (numbers in outlined areas are the relative numbers in the gate) are shown.
(§1) Human blood was collected in 15 ml glass tubes containing Ficoll® gradient (GE Healthcare Life Sciences, Amersham, UK). Peripheral blood […] (PBMCs) were recovered by centrifugation (2200×rpm, 20 min at room temperature). PBMCs were incubated with PTPN2 inhibitor (compound 8) in serum-free RPMI 1640 for two hours at 37° C. and stimulated with plate-bound human α-CD3 (5 μg/ml; clone OKT-3) for 24 h. Cells were harvested and stained with fluorochrome-conjugated antibodies against α-CD8, α-CD45RA, α-CD154 and α-CD69 and analysed by flow cytometry to determine their activation status. To monitor T cells proliferation Calibrite Beads™ were added to the wells before cells were harvested.
Freshly isolated human PBMCs (2×10^6) were stimulated with plate-bound α-CD3 (1.25 and 2.5 μg/ml) for 24 h. PBMCs were harvested and stained with fluorochrome-conjugated antibodies for CD45RA, CD8, CD69 and CD154 and T cell activation was monitored by flow cytometry. […]

[4] = tested on: CD8+ human blood lymphocytes; assay: Human PBMC stimulation with plate-bound α-CD3, CD8+ T cell proliferation by flow cytometry with Calibrite Beads (FIG. 19); type: cell-based; conditions: human PBMCs, plate-bound α-CD3 for 48 h and 72 h, versus vehicle control
Protocol: FIG. 19. […] Freshly isolated human PBMCs (2×10^6) were stimulated with plate-bound α-CD3 for (A) 48 h and (B) 72 h, in the presence of vehicle control or the PTPN2 inhibitor, compound 8 (as described herein). PBMCs were harvested and stained with fluorochrome-conjugated α-CD8. Calibrite Beads™ were added and T cell proliferation was monitored by flow cytometry. Results shown are means±SD for the indicated number of replicates.
as §1
Freshly isolated human PBMCs (2×10^6) were stimulated with plate-bound α-CD3 for (A) 48 h and (B) 72 h, in the presence of vehicle control or the PTPN2 inhibitor, compound 8 (as described herein). […] Calibrite Beads™ were added and T cell proliferation was monitored by flow cytometry. […]

[5] = tested on: Her-2 specific CAR T cells; assay: Her-2-specific CAR T cells incubated with 24JK-Her-2 sarcoma cells, secreted IFNγ by ELISA (FIG. 20); type: cell-based, mouse; conditions: with 24JK-Her-2, 24JK or medium alone, versus vehicle control
Protocol: FIG. 20. […] Her-2-specific CAR T cells were incubated with Her-2 expressing 24JK sarcoma cells (24JK-Her-2) or 24JK sarcoma cells (24JK) or medium alone, in the presence of vehicle control or the PTPN2 inhibitor, compound 8 (described herein). T cell activation was assessed by monitoring for secreted IFNγ by ELISA (Mouse IFNγELISA Set, BD OptEIA™) according to the supplier's specifications. Tests were performed in triplicates (±SD).
Her-2-specific CAR T cells were incubated with Her-2 expressing 24JK sarcoma cells (24JK-Her-2) or 24JK sarcoma cells (24JK) or medium alone, in the presence of vehicle control or the PTPN2 inhibitor, compound 8 (described herein). T cell activation was assessed by monitoring for secreted IFNγ by ELISA (Mouse IFNγELISA Set, BD OptEIA™) according to the supplier's specifications. Tests were performed in triplicates (±SD).

[6] = tested on: murine CD8+ T cells; assay: PTPN2 siRNA knock down in splenocytes, CD8+ T cell numbers after α-CD3/α-CD28 stimulation (FIG. 17); type: cell-based, C57BL/6 mice; conditions: 30 nM, 100 nM and 300 nM siRNA, α-CD3/α-CD28 (5 μg/ml each) for 48 h, versus GFP siRNA
Protocol: FIG. 17. Knock down of PTPN2 using siRNAs in murine CD8+ T cells leads to enhanced TCR-mediated T cell responses. Splenocytes (1×10^7) from C57BL/6 mice were transfected overnight with 100 nM GFP siRNA or 30 nM, 100 nM and 300 nM PTPN2 siRNA or 30 nM BLOCK-iT™ Fluorescent Oligo using the Amaxa Mouse T cell Nucleofactor Kit. (A) Transfection efficiency of CD8^+ T cells was monitored with BLOCK-iT™ Fluorescent Oligo (Fluor.Oligo) by flow cytometry. (B) Transfected splenocytes were stimulated with plate-bound α-CD3 (5 μg/ml) and α-CD28 (5 μg/ml) for 48 h and stained with fluorochrome-conjugated α-CD8. CD8^+ T cell numbers were quantified with Calibrite Beads™ by flow cytometry. Results shown are means±SD for the indicated number of replicates.
Ptpn2 was knocked down transiently in primary murine T cells using Ptpn2 ([…], SEQ ID NO: 14); Dharmacon Thermo Scientific, Waltham, Mass.); green fluorescent protein (GFP; CAAGCUGACCCUGAAGUUCdTdT; Dharmacon Thermo Scientific, Waltham, Mass.) siRNA was used as a control. […] T cell numbers were monitored by flow cytometry. For quantification Calibrite Beads (BD Biosciences) were added to the wells before cells were harvested.
Splenocytes (1×10^7) from C57BL/6 mice were transfected overnight with 100 nM GFP siRNA or 30 nM, 100 nM and 300 nM PTPN2 siRNA using the Amaxa Mouse T cell Nucleofactor Kit. […] CD8+ T cell numbers were quantified by flow cytometry. […]

| Compound | polyclonal CD8+ T cell activation (CD44, CD62L, CD25, CD69 surface levels, MFI) [1] | activated phenotype of naive CD8+ T cells (CD44, CD69, CD25, CD62L MFI) [2] | TCR-mediated T cell activation (CD69, CD154) [3] | TCR-mediated T cell proliferation [4] | tumour-specific activation of Her-2 specific CAR T cells (secreted IFNγ) [5] | TCR-mediated T cell responses (CD8+ T cell number) [6] |
| --- | --- | --- | --- | --- | --- | --- |
| CCc1ccc(C(=O)NCCCCC(NC(=O)C(Cc2ccc(C(F)(F)P(=O)(O)O)cc2)NC(=O)C(Cc2ccccc2)NC(=O)COC2CC(C)CCC2C(C)C)C(N)=O)cc1 (stereo not drawn) [compound 8] | enhances polyclonal CD8^+ T cell activation ex vivo | stimulates naive CD8+ T cells to an activated phenotype | enhanced TCR-mediated T cell activation | enhanced TCR-mediated T cell proliferation | enhances the tumour-specific activation of Her-2 specific CAR T cells ex vivo | – |
| AAGCCCAUAUGAUCACAGUCG (listed as RNA, chemistry not given here) [PTPN2 siRNA, siRNA used to knock down Ptpn2 transiently in primary murine T cells (Dharmacon)] | – | – | – | – | – | dose response increase in cell number |
